# Conditions: buffer; pH 7.4; 200.0 µM
row,Structure (SMILES),solubility kinetic
1,O=C(Nc1ccc(NC(=O)C2CCCCC2)nc1)c1cccc(F)c1,1.2 µg/mL
2,CCC(=O)Nc1c(-c2ccc(C)cc2)c(=O)c2ccccc2n1C,20.8 µg/mL
3,CC(OC(=O)CC1CCCCC1)C(=O)Nc1ccc(F)cc1 (centres undefined),1.2 µg/mL
4,O=C(NCCc1csc(-c2cccnc2)n1)c1cccc(Cl)c1,> 51.6 µg/mL
5,O=C(O)CSc1nc2ccccc2n1Cc1ccccc1,> 44.8 µg/mL
6,COc1cccc(NC(=O)C(C)N2C(=O)c3ccccc3C2=O)c1 (centres undefined),27.3 µg/mL
7,CC(=O)Cc1nsc(Nc2cccc(C)c2)n1,30.5 µg/mL
8,C=CCSc1nc(C)c(CCCC)c(=O)[nH]1,> 35.8 µg/mL
9,O=C(Nc1cccc(Cl)c1)Nc1ccccc1C(=O)O,> 43.6 µg/mL
10,Cc1[nH]nc(SCC(=O)Nc2cccc(O)c2)c1[N+](=O)[O-],> 46.2 µg/mL
11,N#Cc1cc2cc3c(cc2nc1SCC(=O)N1CCOCC1)OCO3,4.9 µg/mL
12,CC(=O)c1cccc(Nc2cc(C)nc3ccccc23)c1.Cl,27.8 µg/mL
13,O=C1/C(=C/c2cccnc2)SC(=S)N1c1ccc(O)cc1,0.9 µg/mL
14,Cc1cc(C(=O)N2CCOCC2)c(C)o1,> 31.4 µg/mL
15,CCC(C)N1CNc2c(c(=O)[nH]c(=S)n2-c2cccc(C)c2)C1 (centres undefined),> 49.6 µg/mL
16,COc1cc2c(cc1OC)C(c1cccc(F)c1)CC(=O)N2 (centres undefined),> 45.2 µg/mL
17,Cc1ccc(S(=O)(=O)c2nc(-c3ccccc3Cl)oc2N(C)C2CCN(C)CC2)cc1,> 69 µg/mL
18,O=Cc1ccc(Sc2ncccn2)o1,24.2 µg/mL
19,O=C(Nc1ccc(C(=O)O)cc1)Nc1ccc([N+](=O)[O-])cc1,> 45.2 µg/mL
20,O=C(Nc1ccc(O)cc1)c1ccc(NC(=O)c2ccco2)cc1,1.8 µg/mL
21,CN(C)/C(=N\S(=O)(=O)c1ccccc1)c1ccc(Cl)cc1,> 48.4 µg/mL
22,COc1ccc(CNC(=O)COC(=O)/C=C/c2cccc(Cl)c2)cc1,3.3 µg/mL
23,O=C(O)CCn1c(-c2ccccc2)cc2ccccc21,35.7 µg/mL

row,Structure (SMILES),solubility kinetic
1,Cc1ccc(-n2ccnc(SCC(=O)NC3CCCC3)c2=O)cc1Cl,3 µg/mL
2,CC1Cc2ccccc2N1C(=O)CN1CCCCC1.Cl (centres undefined),39.3 µg/mL
3,O=C(Nc1ccc2c(c1)OCO2)N1CCCc2ccccc21,> 44.4 µg/mL
4,CCCC(=O)N(Cc1cc(=O)[nH]c2ccccc12)c1ccc(OC)cc1,> 52.6 µg/mL
5,O=C1C(Cl)=C(N2CCCCCC2)C(=O)N1c1ccccc1Cl,25.7 µg/mL
6,Cc1cc2c(=O)n(C)c(SCC(=O)Nc3cccc(F)c3)nc2s1,< 0.3 µg/mL
7,CCN(CC)CCN(C(=O)/C=C/c1cccs1)c1nc2ccc(Cl)cc2s1.Cl,< 0.3 µg/mL
8,COc1ccccc1C(=O)NC1CCCc2ccccc21 (centres undefined),33.2 µg/mL
9,CCc1nc(NC(=O)c2sc(C)nc2C)sc1C(=O)OC,> 48.8 µg/mL
10,Cc1c(C(=O)Nc2ccccc2)cc(-c2ccccc2)n1CCCN1CCOCC1,36.8 µg/mL
11,CCCn1c(=O)c(-c2nc3ccccc3[nH]2)c(O)c2ccccc21,0.4 µg/mL
12,COc1ccc2cc(C(=O)N3CCN(c4ccccc4F)CC3)[nH]c2c1,1.9 µg/mL
13,CC(=O)Nc1ccc(Oc2cncc(Cl)c2)nc1,> 39.6 µg/mL
14,CC(NC(=O)CS(=O)(=O)c1ccccc1)c1ccccc1 (centres undefined),> 45.5 µg/mL
15,Cc1ccc(S(=O)(=O)N2CCOCC2)cc1NC(=O)CNCc1ccc(Cl)cc1Cl,5.4 µg/mL
16,O=C1CCCC(=O)N1c1ccc(N2CCOCC2)c([N+](=O)[O-])c1,> 47.9 µg/mL
17,CC1CC(=O)Nc2ccccc2N1S(=O)(=O)c1ccc(F)cc1F (centres undefined),15.6 µg/mL
18,Nc1nc(Nc2cccc(Cl)c2)nc(NCc2ccco2)c1[N+](=O)[O-],3 µg/mL
19,O=C(Cn1cnc([N+](=O)[O-])c1)Nc1ccc(F)c(Cl)c1,5 µg/mL
20,CCOC(=O)N1CCN(c2cc(NCCO)c([N+](=O)[O-])c3nonc23)CC1,5.9 µg/mL
21,Cc1cc(Nc2cccc(Br)c2)c2ccccc2n1,11.9 µg/mL
22,Cc1ccc(C(=O)Nc2cc3[nH]c(=O)oc3cc2C)cc1,4.8 µg/mL
23,C/C(=N\OCc1ccccc1C#N)c1cc2ccccc2o1,1.1 µg/mL

row,Structure (SMILES),solubility kinetic
1,Cc1ccc(CN2C(=O)C3CCCN3c3ncccc32)cc1 (centres undefined),33.3 µg/mL
2,O=C(COC(=O)C1CC2CCCC(C1)C2=O)Nc1ccc(F)c(Cl)c1 (centres undefined),54.9 µg/mL
3,Cc1[nH]c2ccc(OCc3ccccc3)cc2c1CCN.Cl,> 47.5 µg/mL
4,Cn1cc(C(=O)N2CCCCC2)c2ccccc21,> 36.3 µg/mL
5,COc1ccc(CNC(=O)c2ccc(Br)cc2)cc1,4.1 µg/mL
6,CC(C)(C)S(=O)(=O)c1cnc(N2CCCC2)nc1N,37.9 µg/mL
7,COC(=O)C1=C(C)N(Cc2ccc(OC)cc2)C(=O)/C1=C\c1ccco1,7.7 µg/mL
8,O=[N+]([O-])c1ccc([N+](=O)[O-])c(Nc2ccc(N3CCOCC3)cc2)c1,< 0.2 µg/mL
9,CCC1CCCCN1C(=O)NC(=O)c1ccccc1 (centres undefined),> 39.1 µg/mL
10,COc1ccc([N+](=O)[O-])cc1NC(=O)Nc1ccc(OC)c(OC)c1,0.3 µg/mL
11,CC1CC1C(=O)OCC(=O)NC(=O)c1ccc(C(C)(C)C)cc1 (centres undefined),7.5 µg/mL
12,CCc1ccc(NS(=O)(=O)c2ccc3oc(=O)ccc3c2)cc1,41.2 µg/mL
13,Nc1ccncc1Cl,16.3 µg/mL
14,COc1ccc2[nH]cc(CCNS(=O)(=O)c3ccc(C)cc3)c2c1,50.6 µg/mL
15,CC1CCCC(C)N1C(=O)COC(=O)c1cc(=O)[nH]c2ccccc12 (centres undefined),> 51.4 µg/mL
16,Cc1cc(NC(=O)COC(=O)c2ccccc2NCCO)no1,> 47.9 µg/mL
17,Cc1cccc(S(=O)(=O)Nc2ccc3c(c2)OCCO3)c1,28.7 µg/mL
18,CCN(CC)C(=O)C1=C(C)NC(=S)NC1c1ccc(C)s1 (centres undefined),44.1 µg/mL
19,COc1cc(C(=O)c2ccccc2)c([N+](=O)[O-])cc1OC,> 43.1 µg/mL
20,FC(F)(F)c1ccccc1CNCc1ccncc1,29.4 µg/mL
21,COC(=O)c1sccc1S(=O)(=O)Nc1ccc(Cl)cc1,13 µg/mL
22,N/C(=N\OC(=O)c1ccc([N+](=O)[O-])cc1)c1ccccn1,3.2 µg/mL
23,O=[N+]([O-])/C(C(=C(Cl)Cl)N1CCOCC1)=C1\NCCO1,> 46.5 µg/mL

row,Structure (SMILES),solubility kinetic
1,Cc1cc(C)c[n+](C(C)C(=O)c2ccc(Cl)cc2)c1.[Br-] (centres undefined),> 53.2 µg/mL
2,CCCn1c(N)c(C(=O)CN2CCN(S(=O)(=O)c3cccc(Cl)c3)CC2)c(=O)[nH]c1=O,> 70.5 µg/mL
3,Cc1ccc(CNC(=O)CCCN2C(=S)NC(C)(C)CC2C)cc1 (centres undefined),37 µg/mL
4,COc1cc(/C=C2/SC(=O)NC2=O)ccc1OCc1ccccc1,< 0.7 µg/mL
5,Cn1ccnc1SCC(=O)Nc1cccc(C#N)c1,> 40.8 µg/mL
6,COC(=O)c1sccc1NC(=O)c1ccccc1Br,2.3 µg/mL
7,CC(=O)c1c(C)[nH]c(C(=O)Nc2ccccn2)c1C,> 38.6 µg/mL
8,O=C(COC(=O)CCc1nc2ccccc2c(=O)[nH]1)Nc1ccccc1,> 52.7 µg/mL
9,N#Cc1c(N)n(-c2ccccc2N)c2nc3ccccc3nc12,5.4 µg/mL
10,O=C(NCC(=O)N1CCN(Cc2ccccc2)CC1)c1cc(Cl)cc([N+](=O)[O-])c1,> 62.5 µg/mL
11,O=C1CSC(c2ccc(F)cc2)N1c1c(F)cccc1F (centres undefined),31.2 µg/mL
12,CC(=O)c1ccc(S(=O)(=O)N(C)C(C)CCc2ccco2)cc1 (centres undefined),31.8 µg/mL
13,COc1cc(C(=O)N2CCN(C3CCCCC3)CC2)cc(OC)c1OC.O=C(O)C(=O)O,> 67.9 µg/mL
14,Cc1ccc(C(=O)OCC(=O)NC(=O)c2cccn2C)cc1[N+](=O)[O-],1.3 µg/mL
15,CC(=O)Nc1ccc(S(=O)(=O)NCC(=O)OCC(=O)c2ccc[nH]2)cc1,> 56.9 µg/mL
16,CN(C)/C=C/C(=O)c1ccc2noc(-c3ccccc3)c2c1,15.1 µg/mL
17,O=c1nc(Nc2ccc([N+](=O)[O-])cc2)[nH]c(=O)[nH]1,26.2 µg/mL
18,CS(=O)(=O)N1Cc2ccccc2CC1C(=O)OCC(=O)NCCc1ccc(S(N)(=O)=O)cc1 (centres undefined),59.1 µg/mL
19,CCOC(=O)CC(NC(=O)c1cccs1)c1ccc(C)cc1 (centres undefined),> 47.6 µg/mL
20,CCOC(=O)C1=C(C)NC(C)=C(C(=O)OC)C1c1ccco1 (centres undefined),34.1 µg/mL
21,Cc1ccc(S(=O)(=O)N2CCOCC2)cc1C(=O)c1nccn1C,> 52.4 µg/mL
22,COCCn1c(N)c(N(Cc2ccccc2)C(=O)c2cc(=O)[nH]c3ccccc23)c(=O)[nH]c1=O,> 69.2 µg/mL
23,CCCC(=O)Nc1cc(C)c(NC(=O)c2ccco2)cn1,42.8 µg/mL

row,Structure (SMILES),solubility kinetic
1,CCOC(=O)C1=C(O)C(=O)N(C2CCCCC2)C1,> 38 µg/mL
2,COc1ccccc1N1CCN(CCCCN2C(=O)C3CCCCN3C2=O)CC1 (centres undefined),52.4 µg/mL
3,O=C(CNS(=O)(=O)c1ccc(F)c(Cl)c1)NCCc1ccccc1,5.1 µg/mL
4,Cc1cc(C)nc(N2CCCC(C(=O)Nc3cccc(Cl)c3)C2)n1 (centres undefined),< 0.2 µg/mL
5,O=C(CSc1ncccc1C(=O)O)NC1CCCCCCC1,47.3 µg/mL
6,CC(C)CC(=O)N1CCN(Cc2cccc([N+](=O)[O-])c2)CC1,33.2 µg/mL
7,CC(=O)N1CCN(C(=O)COC(=O)/C=C/c2ccccc2[N+](=O)[O-])CC1,> 54.2 µg/mL
8,O=C1C2C3C=CC(C4CC34)C2C(=O)N1c1cccc2ccccc12 (centres undefined),42.7 µg/mL
9,CCc1ccc(C(C)NC(=O)c2ccncc2)cc1 (centres undefined),> 38.1 µg/mL
10,Cc1nc2sc3c(c2c(=O)[nH]1)CCCCC3,2 µg/mL
11,Cc1ccc([N+](=O)[O-])c(OCCn2cnc3ccccc32)c1,11.6 µg/mL
12,COc1ccc(C(=O)C[n+]2ccc(N(C)C)cc2)cc1.[Cl-],> 46 µg/mL
13,O=C(CN1C(=O)COc2ccccc21)NCCCN1CCOCC1,> 50 µg/mL
14,O=C(O)/C=C/C(=O)c1c(-c2ccccc2)[nH]c2ccccc12,> 43.7 µg/mL
15,Cc1cccc(NP(=O)(Oc2ccccc2)Oc2ccccc2)c1C,< 0.8 µg/mL
16,O=C(COc1ccc(Cl)cc1[N+](=O)[O-])N1CCCCCC1,> 46.9 µg/mL
17,CC(C)(C)NCC(O)COc1cccc2c1CC(O)C(O)C2 (centres undefined),> 46.4 µg/mL
18,CC1CN(S(=O)(=O)c2cc(C(=O)NCCCN3CCCC3=O)ccc2Cl)CC(C)O1 (centres undefined),> 68.7 µg/mL
19,CN(c1ccccc1)S(=O)(=O)c1ccc(Cl)nc1,40.1 µg/mL
20,CC1(C(=O)Nc2ccc3c(c2)OCO3)CC1(Cl)Cl (centres undefined),> 43.2 µg/mL
21,Cc1nn(C)c(C)c1NC(=O)COc1ccc(Cl)cc1,> 44.1 µg/mL
22,COc1cc2c(cc1OC)C(C)N(C(=O)c1cc(Cl)nc(Cl)c1)CC2 (centres undefined),17.1 µg/mL
